# Source: article PMC6130795 (ACS Omega, 2018)
# Target: T1, CDC25B (Homo sapiens, UniProt P30305)
# T1 sequence (P30305 431-538 limits assumed): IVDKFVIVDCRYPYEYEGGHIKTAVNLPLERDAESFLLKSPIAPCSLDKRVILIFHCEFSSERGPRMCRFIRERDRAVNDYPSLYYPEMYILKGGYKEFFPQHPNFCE
# Experiment: In vitro CDC25B enzyme inhibition assay
# Type: biochemical
compound,measurement,value
[Na+].[Na+].[Na+].[O]=[V]([O-])([O-])[O-] [Na3VO4],CDC25B IC50,0.13 ± 0.02 µg/mL
